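Assay format: 96-well plates, 48-hour exposure. GI50 marks 50% less growth. At the TGI there is no net growth.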
Assays:
Experiment in all cases: inhibition of tumour cell growth, NCI panel, 48 h
LOX IMVI melanoma = tested on: LOX IMVI melanoma
SF-539 CNS = tested on: SF-539 CNS
NCI-H522 lung = tested on: NCI-H522 lung
EKVX NSCLC = tested on: EKVX NSCLC
MCF7 breast = tested on: MCF7 breast
UACC-257 melanoma = tested on: UACC-257 melanoma
RXF 393 renal = tested on: RXF 393 renal
SN12C renal = tested on: SN12C renal
UACC-62 melanoma = tested on: UACC-62 melanoma
UO-31 renal = tested on: UO-31 renal
TK-10 renal = tested on: TK-10 renal
SNB-19 CNS = tested on: SNB-19 CNS
HCT-116 colon = tested on: HCT-116 colon
SW-620 colon = tested on: SW-620 colon
NCI-H460 lung = tested on: NCI-H460 lung
HS 578T breast = tested on: HS 578T breast
HOP-92 NSCLC = tested on: HOP-92 NSCLC
MALME-3M melanoma = tested on: MALME-3M melanoma
CCRF-CEM leukemia = tested on: CCRF-CEM leukemia
SF-295 CNS = tested on: SF-295 CNS
NCI-H23 lung = tested on: NCI-H23 lung
IGROV1 ovarian = tested on: IGROV1 ovarian
SK-OV-3 ovarian = tested on: SK-OV-3 ovarian
PC-3 prostate = tested on: PC-3 prostate
A549 NSCLC = tested on: A549 NSCLC
MOLT-4 leukemia = tested on: MOLT-4 leukemia
KM12 colon = tested on: KM12 colon
CAKI-1 renal = tested on: CAKI-1 renal
SK-MEL-2 melanoma = tested on: SK-MEL-2 melanoma
OVCAR-4 ovarian = tested on: OVCAR-4 ovarian
OVCAR-3 ovarian = tested on: OVCAR-3 ovarian
SF-268 CNS = tested on: SF-268 CNS
COLO 205 colon = tested on: COLO 205 colon
K-562 leukemia = tested on: K-562 leukemia
HOP-62 NSCLC = tested on: HOP-62 NSCLC
NCI-H226 lung = tested on: NCI-H226 lung
SR leukemia = tested on: SR leukemia
A498 renal = tested on: A498 renal
U251 CNS = tested on: U251 CNS
HCC-2998 colon = tested on: HCC-2998 colon
BT-549 breast = tested on: BT-549 breast
SK-MEL-28 melanoma = tested on: SK-MEL-28 melanoma
HT29 colon = tested on: HT29 colon
OVCAR-8 ovarian = tested on: OVCAR-8 ovarian
M14 melanoma = tested on: M14 melanoma
MDA-MB-435 = tested on: MDA-MB-435
786-0 renal = tested on: 786-0 renal
HL-60(TB) leukemia = tested on: HL-60(TB) leukemia
RPMI-8226 leukemia = tested on: RPMI-8226 leukemia
T-47D breast = tested on: T-47D breast
OVCAR-5 ovarian = tested on: OVCAR-5 ovarian
SK-MEL-5 melanoma = tested on: SK-MEL-5 melanoma
SNB-75 CNS = tested on: SNB-75 CNS
ACHN renal = tested on: ACHN renal
NCI/ADR-RES ovarian = tested on: NCI/ADR-RES ovarian
HCT-15 colon = tested on: HCT-15 colon
MDA-MB-231 breast = tested on: MDA-MB-231 breast
DU-145 prostate = tested on: DU-145 prostate

`Cc1ccc(/C=N/NC(=O)c2ccccc2Oc2ccccc2)o1` was tested, and the GI50 (LOX IMVI melanoma) was > 67.4 µM, the TGI (LOX IMVI melanoma) was > 100 µM and the GI50 (SF-539 CNS) was > 83.6 µM. For the same molecule, the TGI (SF-539 CNS) was > 100 µM, the GI50 (NCI-H522 lung) was 25.8 µM and the TGI (NCI-H522 lung) was > 100 µM. For the same molecule, the GI50 (EKVX NSCLC) was 38.8 µM, the TGI (EKVX NSCLC) was > 100 µM and the GI50 (MCF7 breast) was 32.9 µM. For the same molecule, the TGI (MCF7 breast) was > 100 µM, the GI50 (UACC-257 melanoma) was 36.5 µM and the TGI (UACC-257 melanoma) was > 100 µM. The GI50 (RXF 393 renal) was 35.6 µM, the TGI (RXF 393 renal) was > 100 µM and the GI50 (SN12C renal) was 32.9 µM. For the same molecule, the TGI (SN12C renal) was > 100 µM, the GI50 (UACC-62 melanoma) was 17.3 µM and the TGI (UACC-62 melanoma) was > 81.2 µM. For the same molecule, the GI50 (UO-31 renal) was 44.8 µM, the TGI (UO-31 renal) was > 100 µM and the GI50 (TK-10 renal) was 71.6 µM. The TGI (TK-10 renal) was > 100 µM, the GI50 (SNB-19 CNS) was 48.4 µM and the TGI (SNB-19 CNS) was > 100 µM. For the same molecule, the GI50 (HCT-116 colon) was 48.8 µM, the TGI (HCT-116 colon) was > 100 µM and the GI50 (SW-620 colon) was > 77.6 µM. For the same molecule, the TGI (SW-620 colon) was > 100 µM, the GI50 (NCI-H460 lung) was 44.4 µM and the TGI (NCI-H460 lung) was > 100 µM. For the same molecule, the GI50 (HS 578T breast) was 46.9 µM, the TGI (HS 578T breast) was > 100 µM and the GI50 (HOP-92 NSCLC) was 12.5 µM. The TGI (HOP-92 NSCLC) was > 95.4 µM, the GI50 (MALME-3M melanoma) was 36.8 µM and the TGI (MALME-3M melanoma) was > 100 µM. For the same molecule, the GI50 (CCRF-CEM leukemia) was 30.9 µM, the TGI (CCRF-CEM leukemia) was > 100 µM and the GI50 (SF-295 CNS) was 27.9 µM. The TGI (SF-295 CNS) was > 100 µM, the GI50 (NCI-H23 lung) was 39.2 µM and the TGI (NCI-H23 lung) was > 100 µM. The GI50 (IGROV1 ovarian) was 59.5 µM, the TGI (IGROV1 ovarian) was > 100 µM and the GI50 (SK-OV-3 ovarian) was 77.6 µM. For the same molecule, the TGI (SK-OV-3 ovarian) was > 100 µM, the GI50 (PC-3 prostate) was 30.3 µM and the TGI (PC-3 prostate) was > 100 µM. For the same molecule, the GI50 (A549 NSCLC) was 43.5 µM, the TGI (A549 NSCLC) was > 100 µM and the GI50 (MOLT-4 leukemia) was 22.8 µM. For the same molecule, the TGI (MOLT-4 leukemia) was 66.5 µM, the GI50 (KM12 colon) was 40 µM and the TGI (KM12 colon) was > 100 µM. For the same molecule, the GI50 (CAKI-1 renal) was 34.1 µM, the TGI (CAKI-1 renal) was > 100 µM and the GI50 (SK-MEL-2 melanoma) was 25.5 µM. The TGI (SK-MEL-2 melanoma) was > 90.9 µM, the GI50 (OVCAR-4 ovarian) was 24.6 µM and the TGI (OVCAR-4 ovarian) was > 100 µM. For the same molecule, the GI50 (OVCAR-3 ovarian) was 40.1 µM, the TGI (OVCAR-3 ovarian) was > 100 µM and the GI50 (SF-268 CNS) was 42.9 µM. The TGI (SF-268 CNS) was > 100 µM, the GI50 (COLO 205 colon) was 61.3 µM and the TGI (COLO 205 colon) was > 100 µM. The GI50 (K-562 leukemia) was 33.8 µM, the TGI (K-562 leukemia) was > 100 µM and the GI50 (HOP-62 NSCLC) was 70.9 µM. The TGI (HOP-62 NSCLC) was > 100 µM, the GI50 (NCI-H226 lung) was 39.1 µM and the TGI (NCI-H226 lung) was > 100 µM. The GI50 (SR leukemia) was 40 µM, the TGI (SR leukemia) was > 100 µM and the GI50 (A498 renal) was > 58.5 µM. The TGI (A498 renal) was > 100 µM, the GI50 (U251 CNS) was 52.2 µM and the TGI (U251 CNS) was > 100 µM. The GI50 (HCC-2998 colon) was 65.3 µM, the TGI (HCC-2998 colon) was > 100 µM and the GI50 (BT-549 breast) was 28.4 µM. The TGI (BT-549 breast) was > 100 µM, the GI50 (SK-MEL-28 melanoma) was 36.6 µM and the TGI (SK-MEL-28 melanoma) was > 100 µM. For the same molecule, the GI50 (HT29 colon) was 63.8 µM, the TGI (HT29 colon) was > 100 µM and the GI50 (OVCAR-8 ovarian) was 39 µM. For the same molecule, the TGI (OVCAR-8 ovarian) was > 100 µM, the GI50 (M14 melanoma) was 40.5 µM and the TGI (M14 melanoma) was > 100 µM. For the same molecule, the GI50 (MDA-MB-435) was 34.6 µM, the TGI (MDA-MB-435) was > 100 µM and the GI50 (786-0 renal) was > 100 µM. For the same molecule, the TGI (786-0 renal) was > 100 µM, the GI50 (HL-60(TB) leukemia) was 22.8 µM and the TGI (HL-60(TB) leukemia) was > 74.1 µM. The GI50 (RPMI-8226 leukemia) was 23.8 µM, the TGI (RPMI-8226 leukemia) was > 88.4 µM and the GI50 (T-47D breast) was 34.9 µM. The TGI (T-47D breast) was > 100 µM, the GI50 (OVCAR-5 ovarian) was > 93 µM and the TGI (OVCAR-5 ovarian) was > 100 µM. It also gave a GI50 (SK-MEL-5 melanoma) of 16.4 µM, a TGI (SK-MEL-5 melanoma) of 33.3 µM and a GI50 (SNB-75 CNS) of 12.8 µM. The TGI (SNB-75 CNS) was > 100 µM, the GI50 (ACHN renal) was 28.5 µM and the TGI (ACHN renal) was > 100 µM. The GI50 (NCI/ADR-RES ovarian) was 25.9 µM, the TGI (NCI/ADR-RES ovarian) was > 100 µM and the GI50 (HCT-15 colon) was 37.9 µM. The TGI (HCT-15 colon) was > 100 µM, the GI50 (MDA-MB-231 breast) was 32.7 µM and the TGI (MDA-MB-231 breast) was > 100 µM. The GI50 (DU-145 prostate) was 73.2 µM and the TGI (DU-145 prostate) was > 100 µM.

— PubChem BioAssay (NCI)
